In patent US8637537B2, “Serine/threonine kinase inhibitors” (Genentech, Inc., priority 2011, dated 2014):
Read-outs that look alike come from different tables or passages of the source.

Target: T1, human recombinant GST-PAK1-KD protein (Homo sapiens, UniProt Q13153)
T1 construct: residues #249-545 of human PAK1, UniProtKP/Swiss Q13153; His6 (N); made in house; host or cells: Sf9 insect cells, pAcGP67 baculovirus expression vector
Experiment: GST-PAK1-KD (kinase domain) biochemical assay, microfluidic mobility shift
Conditions: PAK1 Ki class, read-out: Ki
Method: Activity of human recombinant GST-PAK1-KD protein was assessed in vitro assay by observing the phosphorylation of a fluorogenic peptide substrate.
The peptide substrate is a consensus sequence based on various PAK1 substrates reported in the scientific literature. […] Incubations were carried out at 22° C. in MatriCal MP101 384-well Metriplates™. […] Following the 30-minute incubation, the assay mixtures were quenched by the addition of 3 μL of 250 mM EDTA, and the substrate and phosphorylated product were separated by capillary electrophoresis and detected using LabChip® Caliper 3000 (Caliper Life Sciences).

T1 sequence (Q13153 249-545): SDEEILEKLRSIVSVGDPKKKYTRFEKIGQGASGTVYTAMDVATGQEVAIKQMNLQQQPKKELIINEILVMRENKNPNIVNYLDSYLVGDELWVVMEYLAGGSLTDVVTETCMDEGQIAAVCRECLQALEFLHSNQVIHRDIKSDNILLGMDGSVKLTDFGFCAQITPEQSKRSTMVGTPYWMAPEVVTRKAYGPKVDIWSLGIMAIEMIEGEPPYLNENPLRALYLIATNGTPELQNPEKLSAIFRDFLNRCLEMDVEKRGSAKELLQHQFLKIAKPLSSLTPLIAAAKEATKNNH

Ki (Table II) | Ki (Table I) | Compound
< 50 nM | – | Clc1cc(CNc2nccc(Nc3cc(C4CC4)[nH]n3)n2)c2nc[nH]c2c1 [II-44, N^2-((6-Chloro-1H-benzo[d]imidazol-4-yl)methyl)-N^4-(5-cyclopropyl-1H-pyrazol-3-yl)-pyrimidine-2,4-diamine]
50 to 250 nM | – | CN(Cc1ccc2[nH]cnc2c1)c1ncc(F)c(Nc2cc(C3CC3)[nH]n2)n1 [II-103, N^2-((1H-benzo[d]imidazol-5-yl)methyl)-N^4-(5-cyclopropyl-1H-pyrazol-3-yl)-5-fluoro-N^2-methylpyrimidine-2,4-diamine]
– | < 50 nM | F[C@@H]1C[C@H]1c1cc(Nc2ccnc(NCc3ccc4[nH]cnc4c3Cl)n2)n[nH]1 [I-78, N^2-((4-chloro-1H-benzo[d]imidazol-5-yl)methyl)-N^4-(5-((1S,2R)-2-fluorocyclopropyl)-1H-pyrazol-3-yl)pyrimidine-2,4-diamine]
– | 50 to 250 nM | C[C@H](Nc1nccc(Nc2cc([C@H]3C[C@@H]3c3ccccc3)[nH]n2)n1)c1ccc2[nH]cnc2c1 (stereo in doubt) [I-24, N^2—((S)-1-(1H-benzo[d]imidazol-5-yl)ethyl)-N^4-(5-((trans)-2-phenylcyclopropyl)-1H-pyrazol-3-yl)pyrimidine-2,4-diamine]
– | < 50 nM | FC1(F)CC1c1cc(Nc2ccnc(NCc3cccc4[nH]ccc34)n2)n[nH]1 (stereo not drawn) [I-82, N2—((1H-indol-4-yl)methyl)-N4-(5-(2,2-difluorocyclopropyl)-1H-pyrazol-3-yl)pyrimidine-2,4-diamine]
50 to 250 nM | – | Cc1c(CNc2ncc(F)c(Nc3cc(C4CC4)[nH]n3)n2)ccc2[nH]cnc12 [II-8, N^4-(5-Cyclopropyl-1H-pyrazol-3-yl)-5-fluoro-N^2-[(4-methyl-1H-benzimidazol-5-yl)methyl]pyrimidine-2,4-diamine]
< 50 nM | – | C[C@H](CN(Cc1cc(F)cc2[nH]ncc12)c1nccc(Nc2cc(C3CC3)[nH]n2)n1)N(C)C [II-62, (R)-N^4-(5-cyclopropyl-1H-pyrazol-3-yl)-N^2-(2-(dimethylamino)propyl)-N^2-((6-fluoro-1H-indazol-4-yl)methyl)pyrimidine-2,4-diamine]
– | < 50 nM | C[C@H](Nc1nccc(Nc2cc([C@H]3C[C@@H]3F)[nH]n2)n1)c1ccc2[nH]ccc2c1 [I-73, N^2—((S)-1-(1H-indol-5-yl)ethyl)-N^4-(5-((1R,2S)-2-fluorocyclopropyl)-1H-pyrazol-3-yl)pyrimidine-2,4-diamine]
– | 50 to 250 nM | FC1(F)CC(c2cc(Nc3ccnc(NCc4cccc5[nH]ccc45)n3)n[nH]2)C1 [I-104, N^2-((1H-indol-4-yl)methyl)-N^4-(5-(3,3-difluorocyclobutyl)-1H-pyrazol-3-yl)pyrimidine-2,4-diamine]
– | < 50 nM | F[C@H]1C[C@H]1c1cc(Nc2ccnc(NCc3ccc4[nH]cnc4c3Cl)n2)n[nH]1 [I-76, N^2-((4-chloro-1H-benzo[d]imidazol-5-yl)methyl)-N^4-(5-((1S,2S)-2-fluorocyclopropyl)-1H-pyrazol-3-yl)pyrimidine-2,4-diamine]
< 50 nM | – | CNCCN(Cc1cc(F)cc2[nH]ncc12)c1nccc(Nc2cc(C3CC3)[nH]n2)n1 [II-47, N^4-(5-cyclopropyl-1H-pyrazol-3-yl)-N^2-((6-fluoro-1H-indazol-4-yl)methyl)-N^2-(2-(methylamino)ethyl)pyrimidine-2,4-diamine]
< 50 nM | – | COC[C@@H](C)c1cc(Nc2ccnc(N(C)Cc3ccc4[nH]cnc4c3Cl)n2)n[nH]1 [II-80, (S)-N^2-((4-chloro-1H-benzo[d]imidazol-5-yl)methyl)-N^4-(5-(1-methoxypropan-2-yl)-1H-pyrazol-3-yl)-N^2-methylpyrimidine-2,4-diamine]
– | 250 to 1000 nM | Cc1cnc(NCc2ccc3[nH]cnc3c2)nc1Nc1cc(C2CC2)[nH]n1 [I-32, N^2-(1H-Benzoimidazol-5-ylmethyl)-N^4-(5-cyclopropyl-1H-pyrazol-3-yl)-5-methyl-pyrimidine-2,4-diamine]
– | > 1000 nM | C[C@@H](Nc1ncc(F)c(Nc2cc(C3CC3)[nH]n2)n1)c1cccc2[nH]ccc12 [I-100, N^4-(5-cyclopropyl-1H-pyrazol-3-yl)-5-fluoro-N^2-[(1R)-1-(1H-indol-4-yl)ethyl]pyrimidine-2,4-diamine]
< 50 nM | – | CN(Cc1ccc2[nH]cnc2c1Cl)c1ncc(F)c(Nc2cc(C3COC3)[nH]n2)n1 [II-5, N^2-[(4-Chloro-1H-benzimidazol-5-yl)methyl]-5-fluoro-N^2-methyl-N^4-[5-(oxetan-3-yl)-1H-pyrazol-3-yl]pyrimidine-2,4-diamine]
– | 50 to 250 nM | C[C@H](Nc1nccc(Nc2cc([C@@H]3CC3(F)F)[nH]n2)n1)c1ccc2[nH]cnc2c1 [I-61, N^2—((S)-1-(1H-benzo[d]imidazol-5-yl)ethyl)-N^4-(5-((S)-2,2-difluorocyclopropyl)-1H-pyrazol-3-yl)pyrimidine-2,4-diamine]
– | < 50 nM | FC1(F)C[C@H]1c1cc(Nc2ccnc(NCc3ccc4[nH]cnc4c3Cl)n2)n[nH]1 [I-74, (S)—N^2-((4-chloro-1H-benzo[d]imidazol-5-yl)methyl)-N^4-(5-(2,2-difluorocyclopropyl)-1H-pyrazol-3-yl)pyrimidine-2,4-diamine]

Ki (Table II) | Ki (Table I) | Compound
– | < 50 nM | C[C@H](Nc1nccc(Nc2cc(C3CCCC3)[nH]n2)n1)c1ccc2[nH]cnc2c1 [I-2, (S)—N^2-(1-(1H-benzo[d]imidazol-5-yl)ethyl)-N^4-(5-cyclopentyl-1H-pyrazol-3-yl)pyrimidine-2,4-diamine]
< 50 nM | – | Clc1cc(CNc2nccc(Nc3cc(C4CC4)[nH]n3)n2)c2cn[nH]c2c1 [II-50, N^2-((6-chloro-1H-indazol-4-yl)methyl)-N^4-(5-cyclopropyl-1H-pyrazol-3-yl)pyrimidine-2,4-diamine]
– | < 50 nM | F[C@@H]1C[C@H]1c1cc(Nc2ccnc(NCc3cccc4[nH]ccc34)n2)n[nH]1 (racemic) [I-80, trans-N^2-((1H-indol-4-yl)methyl)-N^4-(5-(2-fluorocyclopropyl)-1H-pyrazol-3-yl)pyrimidine-2,4-diamine]
– | < 50 nM | FC1(F)C[C@@H]1c1cc(Nc2ccnc(NCc3ccc4[nH]cnc4c3Cl)n2)n[nH]1 [I-75, (R)—N^2-((4-chloro-1H-benzo[d]imidazol-5-yl)methyl)-N^4-(5-(2,2-difluorocyclopropyl)-1H-pyrazol-3-yl)pyrimidine-2,4-diamine]
< 50 nM | – | CN(Cc1cc2nc[nH]c2cc1F)c1nccc(Nc2cc(C3CC3)[nH]n2)n1 [II-113, N^2-((6-fluoro-1H-benzo[d]imidazol-5-yl)methyl)-N^4-(5-cyclopropyl-1H-pyrazol-3-yl)-N^2-methylpyrimidine-2,4-diamine]
< 50 nM | – | CN(Cc1c(F)ccc2[nH]ncc12)c1nccc(Nc2cc(C3CC3)[nH]n2)n1 [II-100, N^4-(5-cyclopropyl-1H-pyrazol-3-yl)-N^2-((5-fluoro-1H-indazol-4-yl)methyl)-N^2-methylpyrimidine-2,4-diamine]
– | 50 to 250 nM | c1cc(CNc2nccc(Nc3cc(CC4CC4)[nH]n3)n2)c2cc[nH]c2c1 [I-48, N^2-((1H-indol-4-yl)methyl)-N^4-(5-(cyclopropylmethyl)-1H-pyrazol-3-yl)pyrimidine-2,4-diamine]
– | 50 to 250 nM | Cc1c[nH]c2ccc(CNc3nccc(Nc4cc(C5CC5)[nH]n4)n3)cc12 [I-25, N^4-(5-cyclopropyl-1H-pyrazol-3-yl)-N^2-((3-methyl-1H-indol-5-yl)methyl)pyrimidine-2,4-diamine]
< 50 nM | – | CN(Cc1cccc2[nH]ncc12)c1ncc(F)c(Nc2cc(C3CC3)[nH]n2)n1 [II-93, N^2-((1H-indazol-4-yl)methyl)-N^4-(5-cyclopropyl-1H-pyrazol-3-yl)-5-fluoro-N^2-methylpyrimidine-2,4-diamine]
– | 50 to 250 nM | Fc1cc2[nH]cnc2cc1CNc1nccc(Nc2cc(C3CC3)[nH]n2)n1 [I-28, N^4-(5-Cyclopropyl-1H-pyrazol-3-yl)-N^2-((6-fluoro-1H-benzo[d]imidazol-5-yl)methyl)pyrimidine-2,4-diamine]
– | < 50 nM | CN(Cc1ccc2[nH]cnc2c1Cl)c1ncc(F)c(Nc2cc(C3CC3)[nH]n2)n1 [I-86, N^2-((4-chloro-1H-benzo[d]imidazol-5-yl)methyl)-N^4-(5-cyclopropyl-1H-pyrazol-3-yl)-5-fluoro-N^2-methylpyrimidine-2,4-diamine]
– | < 50 nM | C[C@H](Nc1nccc(Nc2cc(C3CC3)[nH]n2)n1)c1cccc2[nH]ccc12 [I-98, N^4-(5-cyclopropyl-1H-pyrazol-3-yl)-N^2-[(1S)-1-(1H-indol-4-yl)ethyl]pyrimidine-2,4-diamine]
– | 50 to 250 nM | OCCN(Cc1ccc2[nH]cnc2c1)c1nccc(Nc2cc(C3CC3)[nH]n2)n1 [I-63, 2-(((1H-benzo[d]imidazol-5-yl)methyl)(4-(5-cyclopropyl-1H-pyrazol-3-ylamino)pyrimidin-2-yl)amino)ethanol]
– | 250 to 1000 nM | c1cc(CNc2nccc(Nc3cc(C4CCCO4)[nH]n3)n2)c2cc[nH]c2c1 (stereo not drawn) [I-119, N^2-((1H-indol-4-yl)methyl)-N^4-(5-(tetrahydrofuran-2-yl)-1H-pyrazol-3-yl)pyrimidine-2,4-diamine]
< 50 nM | – | CN(Cc1cccc2[nH]ncc12)c1nccc(Nc2cc(C3CC3)[nH]n2)n1 [II-84, N^2-((1H-indazol-4-yl)methyl)-N^4-(5-cyclopropyl-1H-pyrazol-3-yl)-N^2-methylpyrimidine-2,4-diamine]
– | 250 to 1000 nM | Fc1cc(CNc2ncc(F)c(Nc3cc(C4CC4)[nH]n3)n2)c2cc[nH]c2c1 [I-91, N^4-(5-Cyclopropyl-1H-pyrazol-3-yl)-5-fluoro-N^2-((6-fluoro-1H-indol-4-yl)methyl)pyrimidine-2,4-diamine diformate]
